Test results published in patent publication US9550000B2, “Compositions, methods, and systems for the synthesis and use of imaging agents” (Lantheus Medical Imaging, Inc., priority 2011, dated 2017).

What was measured:
[1] = Dofetilide induced ECG changes in sham control and regional cardiac denervated rabbits; format: in vivo, rabbit; settings: for Dofetilide induced events: PVC / Dofetilide induced events: TdP: 4 μg/kg/min iv infusion
Method: Dofetilide is an antiarrhythmic drug used clinically and known to cause QTc prolongation and possible TdP. The role of cardiac denervation in dofetilide induced changes in QTc interval, premature ventricular contraction (PVC) and TdP was assessed in sham control and RCSD rabbits at 3 weeks after surgery. Rabbits were anesthetized with ketamine (40 mg/kg, im) and xylazine (9 mg/kg, im), and dofetilide (1 and 4 μg/kg/min, Haorui Pharma-Chem Inc. Edison, N.J.) was infused for 10 minutes via a catheter in the marginal ear vein. Electrocardiogram (ECG) in lead II configuration was recorded with Ponemah system (v4.3, Data Science International) before and during the drug infusion. Heart rate (HR) and QT interval were derived from ECG waveforms. The QT interval was corrected by Fridericia method (QTcf=QT/RR^1/3).

[2] = humans, 500 μg twice a day; cited from earlier work

Structure (SMILES): CN(CCOc1ccc(NS(C)(=O)=O)cc1)CCc1ccc(NS(C)(=O)=O)cc1 [dofetilide]
- Dofetilide induced events: PVC ([1]; Denervated rabbits (n = 8)): 5 (63%)
- Dofetilide induced events: TdP ([1]; Denervated rabbits (n = 8)): 2 (25%)
- Dofetilide induced events: PVC ([1]; Sham rabbits (n = 6)): 3 (50%)
- Dofetilide induced events: TdP ([1]; Sham rabbits (n = 6)): 1 (17%)
- ECG changes on intravenous administration ([1]; sham control and RCSD rabbits, 1 and 4 μg/kg/min for 10 minutes): induced bradycardia and QT prolongation
- bioavailability [2]: > 90%
